# Data reported in US9260486B2 (The University of Vermont and State Agricultural College, priority 2012, dated 2016).
# Residues, ends and D or L forms follow the SMILES beside them.
# How the values were obtained:
# PKG Iα [1] = target: T1, PKG Iα (Bos taurus, UniProt P00516); assay: 32P-incorporation assay, activation of PKG Iα by SW peptides; assay type: biochemical
# T1 construct: made in house
# T1 sequence (P00516 1-671): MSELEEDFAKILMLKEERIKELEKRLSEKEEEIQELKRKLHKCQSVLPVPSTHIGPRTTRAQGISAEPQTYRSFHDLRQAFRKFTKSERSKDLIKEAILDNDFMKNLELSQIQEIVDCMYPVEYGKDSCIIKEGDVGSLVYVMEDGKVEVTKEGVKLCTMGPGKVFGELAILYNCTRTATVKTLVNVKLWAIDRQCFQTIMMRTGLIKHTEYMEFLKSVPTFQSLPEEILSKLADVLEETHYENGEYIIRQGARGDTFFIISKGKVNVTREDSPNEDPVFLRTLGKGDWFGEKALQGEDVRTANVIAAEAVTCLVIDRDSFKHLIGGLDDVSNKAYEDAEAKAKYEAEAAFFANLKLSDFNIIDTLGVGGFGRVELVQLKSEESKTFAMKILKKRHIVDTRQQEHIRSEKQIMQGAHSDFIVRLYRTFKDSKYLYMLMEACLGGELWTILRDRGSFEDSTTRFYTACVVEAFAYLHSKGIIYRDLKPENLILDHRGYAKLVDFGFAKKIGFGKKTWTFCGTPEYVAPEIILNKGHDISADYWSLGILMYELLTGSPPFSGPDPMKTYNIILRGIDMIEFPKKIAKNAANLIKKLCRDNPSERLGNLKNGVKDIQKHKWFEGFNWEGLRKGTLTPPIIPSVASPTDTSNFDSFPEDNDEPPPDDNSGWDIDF
# Text: Starting with the 29-mer peptide (329-358), covering the full length of the switch helix, an array of peptide derivatives were synthesized to study the contributions from different segments of the SW helix peptide towards the functional phenotype of PKG Iα. Circular dichroism spectroscopy confirmed that the 29-mer SW peptide adopted a helical secondary structure. […] The activity of this short peptide is surprising. To activate the kinase, this non-helical 8-mer peptide first has to adopt the active helical conformation to activate PKG. However, this finding provides critical support in favor that the confined knob/nest interaction site may serve as a novel target site for non-cyclic nucleotide driven activation of PKG.
# The isolation of the SW independent from the kinase allows us to discretely probe the nest in future studies using native and non-native amino acids. Moreover, the use of the SW: 329-358 allows us to answer more fundamental questions about the nature of the regulatory and catalytic domains and the communication between the B-site and the nest. […] The structure of this inhibitor contains a β-phenyl-1,N^2-etheno group attached to the pyrimidine ring. We hypothesized previously, based upon structural observations, that the presence of this phenyl group in the syn orientation effectively blocks PBC closure and reduces the potency of the SW:329-358 in a dose-dependent manner.
# Determination of activation constants was performed using a [γ-^32P]-ATP transfer assay as previously reported (Ruth et al., 1991; Tegge et al., 1995). […] Aliquots, spotted on P81 Whatman paper were subjected to scintillation counting. All experiments were performed in the presence of the PKA-specific inhibitor, PKI^5-24 (70 nM) to suppress endogenous PKA activity.
# PKG Iα [2] = target: T1, PKG Iα; conditions: Butt et al., 1995; cited from earlier work
# KCa1.1 channels = assay: Inside-out patch clamp, open probability of single KCa1.1 channels in membrane patches from VSM cells reconstituted with recombinant PKG; assay type: cell-based; conditions: rat posterior cerebral artery VSM cells, with PKG Iα and ATP
# Text: FIG. 4: SW:329-358 activates single KCa channels in inside-out membrane patches excised from cerebral artery myocytes.
# Once we had supporting evidence that molecules carrying the knob-type ligand conformation were capable of activating PKG we set out to determine if this novel mechanism of kinase activation was functionally relevant. The high conductance calcium-activated potassium channel KCa1.1 is a well-established intracellular target of […] in vascular smooth muscle (VSM) cells. Using inside-out patch clamp configurations from freshly dissociated VSM cells from rat posterior cerebral arteries, we measured the changes of open probability (NPO) of single KCa1.1 channels in response to PKG stimulation in membrane patches excised from freshly-dissociated vascular smooth muscle cells (FIG. 4).
compound,measurement,setting,value
"O=c1c2nc(Br)n([C@@H]3O[C@@H]4CO[P@@](O)(=S)O[C@H]4[C@H]3O)c2nc2[nH]c(-c3ccccc3)cn12 [Rp-PET, (RP)-8-Br-PET-cGMPS]",effect of Rp-PET on activation constant of PKG Iα by SW:329-358,PKG Iα [1]; Rp-PET titrated into activation reactions,linear response of the activation constant to the amount of Rp-PET titrated
same,affinity for PKG Iα regulatory domain binding sites relative to cGMP,PKG Iα [2],higher affinity for the PHG Iα regulatory domain binding sites than cGMP
CC(C)C[C@H](NC(=O)[C@H](CC(N)=O)NC(=O)[C@H](C)NC(=O)[C@H](Cc1ccccc1)NC(=O)[C@H](Cc1ccccc1)NC(=O)[C@H](C)NC(=O)[C@H](C)N)C(=O)N[C@@H](CCCCN)C(=O)O [SW:348-355] (H-AAFFANLK-OH; N-terminus and C-terminus assumed),Emax,"PKG Iα [1]; read-out: activation relative to activation associated with cGMP, 8-mer knob peptide",30%
Nc1nc2c(ncn2[C@@H]2O[C@@H]3COP(=O)(O)O[C@H]3[C@H]2O)c(=O)[nH]1 [cGMP],KCa1.1 channel open probability (NPO),KCa1.1 channels,significantly increased
SW:329-349: SW-peptide derivative with additional removal of the knob residues (DVSNKAYEDAEAKAKYEAEAA),activation of PKG Iα,PKG Iα [1]; under cGMP priming conditions,completely inactive
